Assay results published in ChEMBL document CHEMBL1156990, “[(11)C]Dimebon, radiosynthesis and lipophilicity of a new potential PET agent for imaging of Alzheimer's disease and Huntington's disease” (Bioorg Med Chem Lett, 2010).

Test: Octanol-water partition coefficient, log P by reverse phase HPLC method
Assay type: physicochemical

logP | SMILES
2.21 | CC(=O)N(Cc1ccccc1O[11CH3])c1cnccc1Oc1ccccc1
2.53 | Cc1ccc2c(c1)c1c(n2CCc2ccc(C)nc2)CCN([11CH3])C1
